The supplement of paper PMC10307832

What was measured:
Assay in all cases: relative viability (nuclei count vs DMSO), 5 days (fraction); higher = more cells survive
NCI-H1734 = test system: NCI-H1734
Outline: (§1)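 Relative viability is defined as nuclei in treated wells over nuclei in vehicle wells. Duplicate plates were run and medians reported. Lung cancer cell lines in 1536-well plates were dosed by pin tool one day after seeding, with one drug or with a fixed anchor-drug dose plus five library-drug doses (not always all listed) in √10 steps, and nuclei were counted after 5 days.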

HOP-62 = test system: HOP-62
Outline: as §1

EMC-BAC-2 = test system: EMC-BAC-2
Outline: as §1

NCI-H2342 = test system: NCI-H2342
Outline: as §1

CAL-12T = test system: CAL-12T
Outline: as §1

NCI-H2023 = test system: NCI-H2023
Outline: as §1

NCI-H2009 = test system: NCI-H2009
Outline: as §1

NCI-H650 = test system: NCI-H650
Outline: as §1

NCI-H1944 = test system: NCI-H1944
Outline: as §1

NCI-H1650 = test system: NCI-H1650
Outline: as §1

H3255 = test system: H3255
Outline: as §1

BEN = test system: BEN
Outline: as §1

HCC-15 = test system: HCC-15
Outline: as §1

NCI-H441 = test system: NCI-H441
Outline: as §1

201T = test system: 201T
Outline: as §1

NCI-H522 = test system: NCI-H522
Outline: as §1

SW 900 = test system: SW 900
Outline: as §1

NCI-H2405 = test system: NCI-H2405
Outline: as §1

ChaGo-K-1 = test system: ChaGo-K-1
Outline: as §1

NCI-H1395 = test system: NCI-H1395
Outline: as §1

LU99A = test system: LU99A
Outline: as §1

NCI-H2347 = test system: NCI-H2347
Outline: as §1

NCI-H358 = test system: NCI-H358
Outline: as §1

SK-LU-1 = test system: SK-LU-1
Outline: as §1

NCI-H23 = test system: NCI-H23
Outline: as §1

## Nc1cccc2c1CN(C1CCC(=O)NC1=O)C2=O (stereo not given) [Lenalidomide] + Cc1cc(Nc2cc(N3CCN(C)CC3)nc(Sc3ccc(NC(=O)C4CC4)cc3)n2)n[nH]1 [Tozasertib] (partner 0.1 µM)
NCI-H1734; first compound 0.253 µM
  relative viability: 0.312
NCI-H1734; first compound 0.8 µM
  relative viability: 0.271
NCI-H1734; first compound 2.53 µM
  relative viability: 0.232
NCI-H1734; first compound 8 µM
  relative viability: 0.238
HOP-62; first compound 0.253 µM
  relative viability: 0.359
HOP-62; first compound 0.8 µM
  relative viability: 0.41
HOP-62; first compound 2.53 µM
  relative viability: 0.352
HOP-62; first compound 8 µM
  relative viability: 0.405
EMC-BAC-2; first compound 0.253 µM
  relative viability: 0.287
EMC-BAC-2; first compound 0.8 µM
  relative viability: 0.272
EMC-BAC-2; first compound 2.53 µM
  relative viability: 0.298
EMC-BAC-2; first compound 8 µM
  relative viability: 0.333
NCI-H2342; first compound 0.253 µM
  relative viability: 0.504
NCI-H2342; first compound 0.8 µM
  relative viability: 0.49
NCI-H2342; first compound 2.53 µM
  relative viability: 0.649
NCI-H2342; first compound 8 µM
  relative viability: 0.441
CAL-12T; first compound 0.253 µM
  relative viability: 0.3
CAL-12T; first compound 0.8 µM
  relative viability: 0.302
CAL-12T; first compound 2.53 µM
  relative viability: 0.463
CAL-12T; first compound 8 µM
  relative viability: 0.352
NCI-H2023; first compound 0.253 µM
  relative viability: 0.445
NCI-H2023; first compound 0.8 µM
  relative viability: 0.403
NCI-H2023; first compound 2.53 µM
  relative viability: 0.386
NCI-H2023; first compound 8 µM
  relative viability: 0.519
NCI-H2009; first compound 0.253 µM
  relative viability: 0.776
NCI-H2009; first compound 0.8 µM
  relative viability: 0.761
NCI-H2009; first compound 2.53 µM
  relative viability: 0.836
NCI-H2009; first compound 8 µM
  relative viability: 0.847
NCI-H650; first compound 0.253 µM
  relative viability: 0.795
NCI-H650; first compound 2.53 µM
  relative viability: 0.869
NCI-H650; first compound 8 µM
  relative viability: 0.714
NCI-H1944; first compound 0.253 µM
  relative viability: 0.234
NCI-H1944; first compound 0.8 µM
  relative viability: 0.278
NCI-H1944; first compound 2.53 µM
  relative viability: 0.285
NCI-H1944; first compound 8 µM
  relative viability: 0.232
NCI-H1650; first compound 0.8 µM
  relative viability: 0.58
NCI-H1650; first compound 2.53 µM
  relative viability: 0.563
NCI-H1650; first compound 8 µM
  relative viability: 0.592
H3255; first compound 0.253 µM
  relative viability: 0.602
H3255; first compound 0.8 µM
  relative viability: 0.79
H3255; first compound 2.53 µM
  relative viability: 0.662
H3255; first compound 8 µM
  relative viability: 0.536
BEN; first compound 0.253 µM
  relative viability: 0.594
BEN; first compound 0.8 µM
  relative viability: 0.462
BEN; first compound 2.53 µM
  relative viability: 0.441
BEN; first compound 8 µM
  relative viability: 0.57
HCC-15; first compound 0.253 µM
  relative viability: 0.352
HCC-15; first compound 0.8 µM
  relative viability: 0.431
HCC-15; first compound 2.53 µM
  relative viability: 0.446
HCC-15; first compound 8 µM
  relative viability: 0.496
NCI-H441; first compound 0.253 µM
  relative viability: 0.72
NCI-H441; first compound 0.8 µM
  relative viability: 0.572
NCI-H441; first compound 2.53 µM
  relative viability: 0.621
NCI-H441; first compound 8 µM
  relative viability: 0.522
201T; first compound 0.253 µM
  relative viability: 1.01
201T; first compound 2.53 µM
  relative viability: 1.02
201T; first compound 8 µM
  relative viability: 1.02
NCI-H522; first compound 0.253 µM
  relative viability: 0.574
NCI-H522; first compound 2.53 µM
  relative viability: 0.52
NCI-H522; first compound 8 µM
  relative viability: 0.511
SW 900; first compound 0.253 µM
  relative viability: 0.544
SW 900; first compound 2.53 µM
  relative viability: 0.635
SW 900; first compound 8 µM
  relative viability: 0.616
NCI-H2405; first compound 0.253 µM
  relative viability: 0.738
NCI-H2405; first compound 0.8 µM
  relative viability: 0.766
NCI-H2405; first compound 2.53 µM
  relative viability: 0.778
NCI-H2405; first compound 8 µM
  relative viability: 0.78
ChaGo-K-1; first compound 0.253 µM
  relative viability: 0.242
ChaGo-K-1; first compound 0.8 µM
  relative viability: 0.228
ChaGo-K-1; first compound 2.53 µM
  relative viability: 0.249
ChaGo-K-1; first compound 8 µM
  relative viability: 0.231
NCI-H1395; first compound 0.253 µM
  relative viability: 0.692
NCI-H1395; first compound 0.8 µM
  relative viability: 0.753
NCI-H1395; first compound 2.53 µM
  relative viability: 0.818
NCI-H1395; first compound 8 µM
  relative viability: 0.678
LU99A; first compound 0.253 µM
  relative viability: 0.32
LU99A; first compound 0.8 µM
  relative viability: 0.284
LU99A; first compound 2.53 µM
  relative viability: 0.29
LU99A; first compound 8 µM
  relative viability: 0.276
NCI-H2347; first compound 0.253 µM
  relative viability: 0.633
NCI-H2347; first compound 0.8 µM
  relative viability: 0.414
NCI-H2347; first compound 2.53 µM
  relative viability: 0.643
NCI-H2347; first compound 8 µM
  relative viability: 0.599
NCI-H358; first compound 0.253 µM
  relative viability: 0.12
NCI-H358; first compound 0.8 µM
  relative viability: 0.107
NCI-H358; first compound 2.53 µM
  relative viability: 0.103
NCI-H358; first compound 8 µM
  relative viability: 0.0989
SK-LU-1; first compound 0.253 µM
  relative viability: 0.376
SK-LU-1; first compound 0.8 µM
  relative viability: 0.304
SK-LU-1; first compound 2.53 µM
  relative viability: 0.399
SK-LU-1; first compound 8 µM
  relative viability: 0.392
NCI-H23; first compound 0.253 µM
  relative viability: 0.438
NCI-H23; first compound 0.8 µM
  relative viability: 0.343
NCI-H23; first compound 2.53 µM
  relative viability: 0.723
NCI-H23; first compound 8 µM
  relative viability: 0.405
